The test deals with rat α3/β4 nAChR (Rattus norvegicus, UniProt P04757+P12392). As to conditions: 60 pM [3H]-EB; for retention volume of [3H]-EB: 9.5 ml without competitor.

Each structure is given as a SMILES string. Where two headings read alike, the source gives them in different places.

rat α3/β4 nAChR, sequence (P04757 26-499): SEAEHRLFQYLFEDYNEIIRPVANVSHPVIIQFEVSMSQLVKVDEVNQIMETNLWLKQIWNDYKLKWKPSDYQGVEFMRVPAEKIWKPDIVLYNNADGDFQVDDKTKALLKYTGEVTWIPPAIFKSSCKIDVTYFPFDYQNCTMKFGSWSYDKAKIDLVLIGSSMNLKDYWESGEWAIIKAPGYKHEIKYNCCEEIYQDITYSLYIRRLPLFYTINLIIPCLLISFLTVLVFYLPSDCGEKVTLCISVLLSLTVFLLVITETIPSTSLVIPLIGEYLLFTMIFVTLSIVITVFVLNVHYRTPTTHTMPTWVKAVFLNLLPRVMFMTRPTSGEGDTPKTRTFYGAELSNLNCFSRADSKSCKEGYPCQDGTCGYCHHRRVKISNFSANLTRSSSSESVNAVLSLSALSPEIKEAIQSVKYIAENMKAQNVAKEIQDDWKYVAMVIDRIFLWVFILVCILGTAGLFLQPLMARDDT
rat α3/β4 nAChR, sequence (P12392 22-495 limits assumed): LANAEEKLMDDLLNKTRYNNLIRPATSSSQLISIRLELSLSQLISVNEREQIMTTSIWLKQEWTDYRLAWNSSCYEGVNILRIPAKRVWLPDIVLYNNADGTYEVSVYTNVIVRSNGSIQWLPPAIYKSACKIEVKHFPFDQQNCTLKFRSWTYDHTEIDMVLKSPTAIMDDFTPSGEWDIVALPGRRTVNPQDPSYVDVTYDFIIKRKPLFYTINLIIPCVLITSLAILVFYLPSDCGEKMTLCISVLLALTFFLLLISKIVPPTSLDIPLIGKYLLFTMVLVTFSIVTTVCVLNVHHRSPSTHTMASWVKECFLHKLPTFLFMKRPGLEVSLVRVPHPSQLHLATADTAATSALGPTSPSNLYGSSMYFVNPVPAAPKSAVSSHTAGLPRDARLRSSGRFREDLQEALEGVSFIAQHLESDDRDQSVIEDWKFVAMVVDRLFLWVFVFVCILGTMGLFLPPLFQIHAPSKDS
Experimental: The cultured cells in which rat α3/β4 subtype of neural nicotinic acetylcholine receptor (nAChR) were expressed by transfected cell line KXα3β4R2 were harvested in 30 ml of Tris-HCl buffer (50 mM, pH 7.4) and homogenized for 20 minutes with a Brinkman Polytron homogenizer. The homogenates were centrifuged at 35,000×g for 10 minutes and the supernatant was discarded. The resulting pellets were suspended in 6 ml of 2% cholate in Tris-HCl buffer (50 mM, pH 7.4) and stirred for two hours in an ice bath. After centrifugation at 35,000×g, the supernatant was collected for the immobilization. IAM packing materials (200 mg) were washed three times by centrifugation with Tris-HCl buffer (50 mM, pH 7.4). The IAM materials were suspended in 4 ml of receptor-detergent solution, stirred for one hour at room temperature and dialyzed against 2×1 L buffer for 24 hours at 4° C. When detergents were depleted from the mixture, the receptors were hydrophobically entrapped in the phospholipid monolayer on the surface of IAM materials. The receptor-IAM materials were washed with buffer by centrifugation at 4000×g.
The NR(α4β2)-IAM packing materials were packed in an HR glass column (Pharmacia Biotech) and connected with an HPLC pump. […] The elution profile was monitored by an on-line radioactivity HPLC detector.
The resulting column was used in the LC study of drug-NR binding using frontal chromatographic techniques with [^3H]-epibatidine (EB) as the marker ligand. A series of [^3H]-EB concentrations ranging from 60 pM to 600 pM were pumped through the (α3/β4)NR-IAM column2 to obtain elution profiles showing front and plateau regions. The concentration of the [^3H]-EB in the column eluent was monitored by an LC on-line radioactivity detector.
The binding of the [^3H]-EB on the (α3/β4)NR-IAM column was be altered by the addition of competitive NR-ligands to the mobile phase.

`CN1CCCC1c1cccnc1` (stereo not drawn) [nicotine]: the “mobile phase concentration required to decrease the retention volume of [3H]-EB from 9.5 ml to 6 ml” value is 0.045 µM.

As to `C[N+](C)(C)CCOC(N)=O` [carbachol], the “mobile phase concentration required to decrease the retention volume of [3H]-EB from 9.5 ml to 6 ml” value turned out to be 1.3 µM.

As for `Clc1ccc(C2CC3CCC2N3)cn1` (racemic) [(±)-EB, epibatidine], the “mobile phase concentration required to decrease the retention volume of [3H]-EB from 9.5 ml to 6 ml” value came to 0.00012 µM.

With `c1cncc(OC[C@@H]2CCN2)c1` [A85380], the “mobile phase concentration required to decrease the retention volume of [3H]-EB from 9.5 ml to 6 ml” value is 17000 µM. The “retention volume of [3H]-EB” value (10 nM A85380 in mobile phase) came to 6.6 mL. For the same molecule, the “retention volume of [3H]-EB” value (100 nM A85380 in mobile phase) stood at 1.9 mL.

The values are drawn from patent US6387268B1 (priority 1998, dated 2002).
